# Laboratory results as given in patent publication US12097215B2, “Antibacterial composition and its use in treating bacterial infections” (Vector Vitale IP LLC, priority 2017, dated 2024).
# Read-outs that look alike come from different tables or passages of the source. Marks after values point to notes of the source that are not given here.
# Tests used:
# E. coli ATCC 25922 [1] = assay: MBC by plating tube contents on Mueller-Hinton medium; assay type: cell-based
# Method: (§1) To evaluate the bactericidal action of the antibacterial composition based on light isotope ^64Zne the minimum bactericidal concentration (MBC) was determined by plating out 0.1 ml of the contents of each tube containing the antibacterial composition on Mueller-Hinton medium. The incubation was at 37° C. for 24 h.
# (§2) The MBC of the test samples was determined as the lowest concentration at which there was no growth on Mueller-Hinton agar medium.
# S. aureus ATCC 25923 [2] = assay: as above; assay type: cell-based
# Method: as §1, §2
# P. aeruginosa ATCC 27853 [3] = assay: as above; assay type: cell-based
# Method: as §1, §2
# E. coli ATCC 25922 [4] = assay: MIC by serial dilutions in broth (visible growth); assay type: cell-based;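 note: broth tubes inoculated to about 5×10^5 CFU/ml, incubated at 35 °C for 16-24 h, growth judged by transmitted light versus an untreated inoculum reference tube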
# Method: (§3) The minimum inhibitory concentration (MIC) and minimum bactericidal concentration (MBC) of the antibacterial composition enriched for the light isotope zinc ^64Zne was evaluated in the experiment. […] S. aureus ATCC 25923, E. coli ATCC 25922 and P. aeruginosa ATCC 27853 were used as test cultures.
# (§4) The studies were carried out using the method of serial dilutions in broth. To determine sensitivity of microorganisms to the antibacterial composition, 0.5 ml of broth was placed into each tube. The number of tubes was determined based on the desired number of dilutions and was increased by one for the “negative” control (no test composition). Series of two-fold serial dilutions of the test variants of the antibacterial composition were used and concentrations ranging from 450 mcg ^64Zne/ml to 0.000107 mcg ^64Zne/ml were obtained.
# (§5) Reference test strains of S. aureus ATCC 25923, E. coli ATCC 25922 and P. aeruginosa ATCC 27853 were incubated in Mueller-Hinton liquid broth at 37° C. for 24 hours. Standard bacterial suspension equivalent to 0.5 McFarland standard diluted 100-fold with the broth was used for the inoculation of the tubes after which the concentration of microorganism in it was approximately 10^6 CFU/ml.
# (§6) 0.5 ml of inoculum was added to each tube containing 0.5 ml of the appropriate dilution of a solution of the ^64Zn-enriched salt of interest. […] The final concentration of the microorganism in each tube was approximately 5×10^5 CFU/ml.
# (§7) The tubes were incubated at 35° C. in air for 16-20 or 20-24 hours (depending on the bacterial strain).
# (§8) To determine the presence of microorganism growth the test tubes with inoculum were viewed under transmitted light. Transmitted light was measured by spectrophotometry. The growth of culture in the presence of antibacterial compositions based on ^64Zne was compared with the reference test tube (“negative” control), containing the original inoculum and stored in the refrigerator. The MIC was determined as the lowest concentration of ^64Zne that inhibits visible growth of the microorganism. Both gram-positive (S. aureus) and gram-negative bacteria (P. aeruginosa, E. coli) were used in the experiments described below.
# (§9) That is, ^64Zne in the form of a salt was compared with a composition that contains zinc with a natural distribution of isotopes. […] Relevant samples containing salt of natural zinc with EDDA and natural zinc sulfate were used for the comparison.
# (§10) The following commercial antibacterial medications were used for the study: azithromycin and ceftriaxone and norfloxacin. The initial concentration of 3000 mcg/ml was used for the samples of all the above compounds. […] Serial dilutions of the above antibacterial compounds were also prepared in the same way as for the antibacterial composition of the invention. The same pathogenic strains of S. aureus ATCC 25923, E. coli ATCC 25922, P. aeruginosa ATCC 27853 were used for the study.
# P. aeruginosa ATCC 27853 [5] = assay: MIC by serial dilutions in broth (visible growth)
# Method: as §3, §4, §5, §6, §7, §8, §9, §10
# S. aureus ATCC 25923 [6] = assay: MIC by serial dilutions in broth (visible growth); assay type: cell-based;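 note: broth tubes inoculated at about 5×10^5 CFU/ml, incubated 16-24 h at 35 °C in air, growth judged by transmitted light against an unexposed refrigerated inoculum tube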
# Method: as §3, §4, §5, §6, §7, §8, §9, §10
# [7] = Table 7, ^64Zne vs natural zinc
# [8] = Table 8, ^64Zne vs natural zinc
# [9] = concentration of ^64Zne, Tables 1-5
compound,measurement,setting,value
NC(CC(=O)[O-])C(=O)[O-].[64Zn+2] (racemic) [^64Zne aspartate],MBC,E. coli ATCC 25922 [1]; Table 6,0.73* mcg ^64Zne/ml
same,MBC,S. aureus ATCC 25923 [2]; Table 6,0.023* mcg ^64Zne/ml
same,MBC,P. aeruginosa ATCC 27853 [3]; Table 6,>750 mcg ^64Zne/ml
"O=S(=O)([O-])[O-].[Zn+2] [Natural zinc - sulfate, natural zinc sulfate, reference compound]",MIC,E. coli ATCC 25922 [4]; [7],187.5 zinc/ml
same,MIC,P. aeruginosa ATCC 27853 [5]; [7],750 zinc/ml
same,MBC,E. coli ATCC 25922 [1]; [8],>750 mcg zinc/ml
same,MBC,S. aureus ATCC 25923 [2]; [8],>750 mcg zinc/ml
same,MBC,P. aeruginosa ATCC 27853 [3]; [8],>750 mcg zinc/ml
same,MIC,S. aureus ATCC 25923 [6]; [7],93.75 zinc/ml
"O=C([O-])CC(NCCNC(CC(=O)O)C(=O)O)C(=O)[O-].[64Zn+2] (stereo not shown) [^64Zne EDDS, ^64Zne salt of ethylenediamine-N,N′-disuccinic acid, chemical name 2-[2-[[(1)-1-carboxy-2-carboxylatoethyl]amino]ethylamino]butanedioate]",MIC,E. coli ATCC 25922 [4]; [7],0.18 zinc/ml
same,visible growth,E. coli ATCC 25922 [4]; ^64Zne 0.00036 mcg/ml,+
same,visible growth,E. coli ATCC 25922 [4]; ^64Zne 0.00072 mcg/ml,+
same,visible growth,E. coli ATCC 25922 [4]; ^64Zne 0.0014 mcg/ml,+
same,visible growth,E. coli ATCC 25922 [4]; ^64Zne 0.0029 mcg/ml,+
same,visible growth,E. coli ATCC 25922 [4]; ^64Zne 0.0057 mcg/ml,+
same,visible growth,E. coli ATCC 25922 [4]; ^64Zne 0.011 mcg/ml,+
same,visible growth,E. coli ATCC 25922 [4]; ^64Zne 0.023 mcg/ml,−
same,visible growth,E. coli ATCC 25922 [4]; ^64Zne 0.046 mcg/ml,−
same,visible growth,E. coli ATCC 25922 [4]; ^64Zne 0.092 mcg/ml,−
same,visible growth,E. coli ATCC 25922 [4]; ^64Zne 0.18 mcg/ml,−
same,visible growth,E. coli ATCC 25922 [4]; ^64Zne 0.37 mcg/ml,−
same,visible growth,E. coli ATCC 25922 [4]; ^64Zne 0.73 mcg/ml,−
same,visible growth,E. coli ATCC 25922 [4]; ^64Zne 1.46 mcg/ml,−
same,visible growth,E. coli ATCC 25922 [4]; ^64Zne 2.93 mcg/ml,−
same,visible growth,E. coli ATCC 25922 [4]; ^64Zne 5.86 mcg/ml,−
same,visible growth,E. coli ATCC 25922 [4]; ^64Zne 11.72 mcg/ml,−
same,visible growth,E. coli ATCC 25922 [4]; ^64Zne 23.44 mcg/ml,−
same,visible growth,E. coli ATCC 25922 [4]; ^64Zne 46.88 mcg/ml,−
same,visible growth,E. coli ATCC 25922 [4]; ^64Zne 93.75 mcg/ml,−
same,visible growth,E. coli ATCC 25922 [4]; ^64Zne 187.5 mcg/ml,−
same,visible growth,E. coli ATCC 25922 [4]; ^64Zne 375 mcg/ml,−
same,visible growth,E. coli ATCC 25922 [4]; ^64Zne 750 mcg/ml,−
same,visible growth,E. coli ATCC 25922 [4]; ^64Zne 1500 mcg/ml,−
same,MIC,E. coli ATCC 25922 [4]; [9],0.0229 µg/mL
same,bacteriostatic activity (in words),P. aeruginosa ATCC 27853 [5],best results
same,MIC,P. aeruginosa ATCC 27853 [5]; [7],5.86 zinc/ml
same,MIC,P. aeruginosa ATCC 27853 [5]; [9],1.465 µg/mL
same,MBC,E. coli ATCC 25922 [1]; Table 6,2.93* mcg ^64Zne/ml
same,MBC,E. coli ATCC 25922 [1]; [8],2.9296 mcg zinc/ml
same,MBC,S. aureus ATCC 25923 [2]; Table 6,0.73* mcg ^64Zne/ml
same,MBC,S. aureus ATCC 25923 [2]; [8],0.7324 mcg zinc/ml
same,bactericidal activity (in words),P. aeruginosa ATCC 27853 [3],satisfactory bactericidal activity
same,MBC,P. aeruginosa ATCC 27853 [3]; Table 6,375 mcg ^64Zne/ml
same,MBC,P. aeruginosa ATCC 27853 [3]; [8],375 mcg zinc/ml
same,MIC,S. aureus ATCC 25923 [6]; [7],0.73 zinc/ml
same,visible growth,S. aureus ATCC 25923 [6]; ^64Zne 0.00036 mcg/ml,+
same,visible growth,S. aureus ATCC 25923 [6]; ^64Zne 0.00072 mcg/ml,+
same,visible growth,S. aureus ATCC 25923 [6]; ^64Zne 0.0014 mcg/ml,+
same,visible growth,S. aureus ATCC 25923 [6]; ^64Zne 0.0029 mcg/ml,+
same,visible growth,S. aureus ATCC 25923 [6]; ^64Zne 0.0057 mcg/ml,+
same,visible growth,S. aureus ATCC 25923 [6]; ^64Zne 0.011 mcg/ml,+
same,visible growth,S. aureus ATCC 25923 [6]; ^64Zne 0.023 mcg/ml,+
same,visible growth,S. aureus ATCC 25923 [6]; ^64Zne 0.046 mcg/ml,+
same,visible growth,S. aureus ATCC 25923 [6]; ^64Zne 0.37 mcg/ml,−
same,visible growth,S. aureus ATCC 25923 [6]; ^64Zne 0.73 mcg/ml,−
same,visible growth,S. aureus ATCC 25923 [6]; ^64Zne 1.46 mcg/ml,−
same,visible growth,S. aureus ATCC 25923 [6]; ^64Zne 2.93 mcg/ml,−
same,visible growth,S. aureus ATCC 25923 [6]; ^64Zne 5.86 mcg/ml,−
same,visible growth,S. aureus ATCC 25923 [6]; ^64Zne 11.72 mcg/ml,−
same,visible growth,S. aureus ATCC 25923 [6]; ^64Zne 23.44 mcg/ml,−
same,visible growth,S. aureus ATCC 25923 [6]; ^64Zne 46.88 mcg/ml,−
same,visible growth,S. aureus ATCC 25923 [6]; ^64Zne 93.75 mcg/ml,−
same,visible growth,S. aureus ATCC 25923 [6]; ^64Zne 187.5 mcg/ml,−
same,visible growth,S. aureus ATCC 25923 [6]; ^64Zne 375 mcg/ml,−
same,visible growth,S. aureus ATCC 25923 [6]; ^64Zne 750 mcg/ml,−
same,MIC,S. aureus ATCC 25923 [6]; [9],0.366 µg/mL
NC(CC(=O)O)C(=O)O (stereo not shown) [^64Zne aspartate],MIC,"E. coli ATCC 25922 [4]; Escherichia coli, ATCC25922, concentration of ^64Zne, Tables 1-5, read-out: MIC",0.0229 µg/mL
same,visible growth,E. coli ATCC 25922 [4]; ^64Zne 0.00018 mcg/ml,+
same,visible growth,E. coli ATCC 25922 [4]; ^64Zne 0.00036 mcg/ml,+
same,visible growth,E. coli ATCC 25922 [4]; ^64Zne 0.00072 mcg/ml,+
same,visible growth,E. coli ATCC 25922 [4]; ^64Zne 0.0014 mcg/ml,+
same,visible growth,E. coli ATCC 25922 [4]; ^64Zne 0.0029 mcg/ml,+
same,visible growth,E. coli ATCC 25922 [4]; ^64Zne 0.0057 mcg/ml,+
same,visible growth,E. coli ATCC 25922 [4]; ^64Zne 0.011 mcg/ml,+
same,visible growth,E. coli ATCC 25922 [4]; ^64Zne 0.023 mcg/ml,−
same,visible growth,E. coli ATCC 25922 [4]; ^64Zne 0.046 mcg/ml,−
same,visible growth,E. coli ATCC 25922 [4]; ^64Zne 0.092 mcg/ml,−
same,visible growth,E. coli ATCC 25922 [4]; ^64Zne 0.18 mcg/ml,−
same,visible growth,E. coli ATCC 25922 [4]; ^64Zne 0.37 mcg/ml,−
same,visible growth,E. coli ATCC 25922 [4]; ^64Zne 0.73 mcg/ml,−
same,visible growth,E. coli ATCC 25922 [4]; ^64Zne 1.46 mcg/ml,−
same,visible growth,E. coli ATCC 25922 [4]; ^64Zne 2.93 mcg/ml,−
same,visible growth,E. coli ATCC 25922 [4]; ^64Zne 5.86 mcg/ml,−
same,visible growth,E. coli ATCC 25922 [4]; ^64Zne 11.72 mcg/ml,−
same,visible growth,E. coli ATCC 25922 [4]; ^64Zne 23.44 mcg/ml,−
same,visible growth,E. coli ATCC 25922 [4]; ^64Zne 46.88 mcg/ml,−
same,visible growth,E. coli ATCC 25922 [4]; ^64Zne 93.75 mcg/ml,−
same,visible growth,E. coli ATCC 25922 [4]; ^64Zne 187.5 mcg/ml,−
same,visible growth,E. coli ATCC 25922 [4]; ^64Zne 375 mcg/ml,−
same,visible growth,E. coli ATCC 25922 [4]; ^64Zne 750 mcg/ml,−
same,bacteriostatic activity (in words),P. aeruginosa ATCC 27853 [5],best results
same,MIC,"P. aeruginosa ATCC 27853 [5]; Pseudomonas aeruginosa, ATCC27853",0.732 µg/mL
same,MIC,"S. aureus ATCC 25923 [6]; Staphylococcus aureus, ATCC25923, concentration of ^64Zne, Tables 1-5, read-out: MIC",0.0057 µg/mL
same,visible growth,S. aureus ATCC 25923 [6]; ^64Zne 0.00018 mcg/ml,+
same,visible growth,S. aureus ATCC 25923 [6]; ^64Zne 0.00036 mcg/ml,+
same,visible growth,S. aureus ATCC 25923 [6]; ^64Zne 0.00072 mcg/ml,+
same,visible growth,S. aureus ATCC 25923 [6]; ^64Zne 0.0014 mcg/ml,+
same,visible growth,S. aureus ATCC 25923 [6]; ^64Zne 0.0029 mcg/ml,+
same,visible growth,S. aureus ATCC 25923 [6]; ^64Zne 0.0057 mcg/ml,−
same,visible growth,S. aureus ATCC 25923 [6]; ^64Zne 0.011 mcg/ml,−
same,visible growth,S. aureus ATCC 25923 [6]; ^64Zne 0.023 mcg/ml,−
same,visible growth,S. aureus ATCC 25923 [6]; ^64Zne 0.046 mcg/ml,−
same,visible growth,S. aureus ATCC 25923 [6]; ^64Zne 0.092 mcg/ml,−
same,visible growth,S. aureus ATCC 25923 [6]; ^64Zne 0.18 mcg/ml,−
same,visible growth,S. aureus ATCC 25923 [6]; ^64Zne 0.37 mcg/ml,−
same,visible growth,S. aureus ATCC 25923 [6]; ^64Zne 0.73 mcg/ml,−
same,visible growth,S. aureus ATCC 25923 [6]; ^64Zne 1.46 mcg/ml,−
same,visible growth,S. aureus ATCC 25923 [6]; ^64Zne 2.93 mcg/ml,−
same,visible growth,S. aureus ATCC 25923 [6]; ^64Zne 5.86 mcg/ml,−
same,visible growth,S. aureus ATCC 25923 [6]; ^64Zne 11.72 mcg/ml,−
same,visible growth,S. aureus ATCC 25923 [6]; ^64Zne 23.44 mcg/ml,−
same,visible growth,S. aureus ATCC 25923 [6]; ^64Zne 46.88 mcg/ml,−
same,visible growth,S. aureus ATCC 25923 [6]; ^64Zne 93.75 mcg/ml,−
same,visible growth,S. aureus ATCC 25923 [6]; ^64Zne 187.5 mcg/ml,−
same,visible growth,S. aureus ATCC 25923 [6]; ^64Zne 375 mcg/ml,−
